Data on 30 compounds can be found in patent US4499094A, “Derivatives of arene and hetero-arene carboxamides and their use as medicaments” (Pharmuka Laboratoires, priority 1982, dated 1985).

A word on the Ki: it is a dissociation constant, usually derived from enzyme kinetics or from competition with a known ligand.

The test system of the first assay is binding sites of (^3 H) diazepam in the brain.
Assay: not given
The following applies: brain, in words; cited from earlier work.
Consider `CN1C(=O)CN=C(c2ccc(Cl)cc2)c2cc(Cl)ccc21` [Ro-5-4864], for which the “affinity for the binding sites of (^3 H) diazepam in the brain (central level)” value was “inactive at the central level”.

The same assay, now with this note: rank order; cited from earlier work.
With `CN1C(=O)CN=C(c2ccc(Cl)cc2)c2cc(Cl)ccc21` [Ro-5-4864], the “classification by decreasing affinity, "cerebral" type” value is “clonazepan>diazepam>Ro-5-4864”.

The next assay concerns binding sites of (^3 H) diazepam in the kidney.
Assay: not given
The following applies: kidney / peripheral level, in words; cited from earlier work.
Turning to `CN1C(=O)CN=C(c2ccc(Cl)cc2)c2cc(Cl)ccc21` [Ro-5-4864], the “activity at the binding sites of (^3 H) diazepam in the kidney (peripheral level)” value is “very active at the peripheral level”. `O=C1CN=C(c2ccccc2Cl)c2cc([N+](=O)[O-])ccc2N1` [clonazepam]: the “activity at the binding sites of (^3 H) diazepam in the kidney (peripheral level)” value is “practically inactive”.

Still in this assay, the particulars now being: rank order; cited from earlier work.
Consider `CN1C(=O)CN=C(c2ccc(Cl)cc2)c2cc(Cl)ccc21` [Ro-5-4864], for which the “classification by decreasing affinity, "peripheral" type” value was “Ro-5-4864>diazepam>clonazepam”. Consider `O=C1CN=C(c2ccccc2Cl)c2cc([N+](=O)[O-])ccc2N1` [clonazepam], for which the “classification by decreasing affinity, "peripheral" type” value is “Ro-5-4864>diazepam>clonazepam”. Consider `CN1C(=O)CN=C(c2ccccc2)c2cc(Cl)ccc21` [diazepam], for which the “classification by decreasing affinity, "peripheral" type” value is listed as “Ro-5-4864>diazepam>clonazepam”.

The target of another assay is T1, "peripheral" receptor sites of benzodiazepines (Rattus norvegicus, UniProt P16257).
T1 construct: on kidney membranes from the rat; from tissue; host or cells: rat kidney membranes
The assay is described as follows: Affinity for "peripheral" receptor sites of benzodiazepines: displacement of tritiated diazepam on kidney membranes from the rat. The assay is classed as binding.
Settings: not given
From the text: The products have been studied according to the method of C. BRAESTRUP et al, Proc. Natl. Acad. Sci. USA, 1977, 74, 3805, on kidney membranes from the rat.
Turning to `CCC(C)N(C)C(=O)c1cc2ccccc2c(-c2ccccc2)n1` (stereo not shown) [Example 10, N-methyl N(1-methylpropyl) 1-phenyl isoquinoline 3-carboxamide], the Ki was determined as 2 nM.

The same assay, now with this note: read-out: Ki.
In the case of `CCN(CC)C(=O)c1cc(-c2ccccc2)c2ccccc2c1` [Example 1, N,N-diethyl 4-phenyl naphthalene 2-carboxamide], the Ki is 5.4 nM.

`CCN(CC)C(=O)c1cc(-c2ccccc2)c2ccccc2n1` [Example 3, N,N-diethyl 4-phenyl quinoline 2-carboxamide]: the Ki was 27 nM. Same read-out and setting: to `CCN(CC)C(=O)c1cc2ccccc2c(-c2ccccc2)n1` [Example 5, N,N-diethyl 1-phenyl isoquinoline 3-carboxamide] belongs 150 nM. Same read-out and setting: the figure for `CCN(CC)C(=O)c1cc2ccccc2c(-c2ccccc2Cl)n1` [Example 6, N,N-diethyl 1-(2-chloro-phenyl) isoquinoline 3-carboxamide] is 17 nM; for `O=C(c1cc2ccccc2c(-c2ccccc2)n1)N1CCCCC1` [Example 7, 1-[3-(1-phenylisoquinolyl)carbonyl]piperidine] it is 210 nM. The same measure, in the same setting: to `CCN(CC)C(=O)c1cc2ccccc2c(-c2cccc(Cl)c2)n1` [Example 11, N,N-diethyl 1-(3-chlorophenyl) isoquinoline 3-carboxamide] belongs 9 nM.

On to `CCN(CC)C(=O)c1cc2ccccc2c(-c2ccc(C)cc2)n1` [Example 12, N,N-diethyl 1-(4-methylphenyl) isoquinoline 3-carboxamide], for which the Ki was found to be 99 nM. For the compound `O=C(c1cc2ccccc2c(-c2ccccc2Cl)n1)N1CCCCC1` [Example 13, 1-[[1-(2-chlorophenyl) 3-isoquinolyl]carbonyl]piperidine], the Ki is 72 nM.

For the compound `CCCN(CCC)C(=O)c1cc2ccccc2c(-c2ccccc2Cl)n1` [Example 14, N,N-dipropyl 1-(2-chlorophenyl) isoquinoline 3-carboxamide], the Ki came out at 18 nM. For `CCN(CC)C(=O)c1cc2ccccc2c(-c2cccc(F)c2)n1` [Example 15, N,N-diethyl 1-(3-fluorophenyl) isoquinoline 3-carboxamide], the Ki was found to be 20 nM. On to `CCC(C)N(C)C(=O)c1cc2ccccc2c(-c2ccccc2F)n1` (stereo not shown) [Example 16, N-methyl N-(1-methylpropyl) 1-(2-fluorophenyl) isoquinoline 3-carboxamide], for which the Ki amounted to 0.9 nM. The same measure, in the same setting: to `CN(Cc1ccccc1)C(=O)c1cc2ccccc2c(-c2ccccc2Cl)n1` [Example 17, N-methyl N-phenylmethyl 1-(2-chlorophenyl) isoquinoline 3-carboxamide] belongs 117 nM. On the same count and under the same terms, to `CC(C)N(C(=O)c1cc2ccccc2c(-c2ccccc2Cl)n1)C(C)C` [Example 24, N,N-di(1-methylethyl) 1-(2-chlorophenyl) isoquinoline 3-carboxamide] belongs 20 nM; to `C=CC(C)N(C)C(=O)c1cc2ccccc2c(-c2ccccc2Cl)n1` (stereo not shown) [Example 25, N-methyl N(1-methylpropene-2-yl) 1-(2-chlorophenyl) isoquinoline 3-carboxamide], 3 nM; to `CCN(CC)C(=O)c1cc2sccc2c(-c2ccccc2Cl)n1` [Example 31, N,N-diethyl 4-(2-chlorophenyl) thieno[3,2-c]pyridine 6-carboxamide], 9 nM. On the same count and under the same terms, the figure for `CCN(CC)C(=O)c1cc2ccsc2c(-c2ccccc2Cl)n1` [Example 32, N,N-diethyl 7-(2-chlorophenyl) thieno[2,3-c]pyridine 5-carboxamide] is 6.3 nM; for `CCN(CC)C(=O)c1nc(-c2ccccc2)c2ccccc2n1` [Example 33, N,N-diethyl 4-phenyl quinazoline 2-carboxamide] it is 27 nM; for `CCC(C)N(C)C(=O)c1cc(-c2ccccc2F)c2ccccc2n1` (stereo not shown) [Example 35, N-methyl N(1-methylpropyl) 4-(2-fluorophenyl) quinoline 2-carboxamide] it is 2 nM. With `CCN(CC)C(=O)c1cc(-c2cccc([N+](=O)[O-])c2)c2ccccc2n1` [Example 38, N,N-diethyl 4-(3-nitrophenyl) quinoline 2-carboxamide], the Ki turned out to be 30 nM.

As to `CCCCN(CCCC)C(=O)c1cc2ccccc2c(-c2ccccc2)n1` [Example 39, N,N-dibutyl 1-phenyl isoquinoline 3-carboxamide], the Ki came out at 21 nM.

As for `CCC1CCCCN1C(=O)c1cc2ccccc2c(-c2ccccc2)n1` (stereo not shown) [Example 40, 2-ethyl 1-[(1-phenyl 3-isoquinolyl)carbonyl]piperidine], the Ki is 16 nM. `CC[C@@H]1CCCCN1C(=O)c1cc2ccccc2c(-c2ccccc2)n1` [Example 41, 2(R)-ethyl 1-[(1-phenyl 3-isoquinolyl)carbonyl]piperidine]: the Ki came to 22 nM. Take `CC[C@H]1CCCCN1C(=O)c1cc2ccccc2c(-c2ccccc2)n1` [Example 42, 2(S)-ethyl 1-[(1-phenyl 3-isoquinolyl)carbonyl]piperidine]: the Ki turned out to be 13 nM.

Take `CCN(CC)C(=O)c1cc2ccccc2c(-c2cccc(C(F)(F)F)c2)n1` [Example 43, N,N-diethyl 1-(3-trifluoromethylphenyl) isoquinoline 3-carboxamide]: the Ki came to 13 nM.

On to `CCC(C)N(C)C(=O)c1cc2ccsc2c(-c2ccccc2Cl)n1` (stereo not shown) [Example 46, N-methyl N-(1-methylpropyl) 7-(2-chlorophenyl) thieno[2,3-c]pyridine 5-carboxamide], for which the Ki stood at 7 nM.

Turning to `CCC(C)N(C)C(=O)c1cc2sccc2c(-c2ccccc2Cl)n1` (stereo not shown) [Example 47, N-methyl N-(1-methylpropyl) 4-(2-chlorophenyl) thieno[3,2-c]pyridine 6-carboxamide], the Ki is 1 nM.
